Data on 18 compounds can be found in patent US20240228482A1, “COMPOUNDS, COMPOSITIONS AND METHODS OF TREATING CANCER” (HOTSPOT THERAPEUTICS, INC., priority 2021, published 2024).

Where only a bound is given, the exact number is not on record here.

The target in the experiment is T1, CBL-B (Homo sapiens, UniProt Q13191).
T1 construct: GST
Put plainly: CBL-B TR-FRET IC50 screening (E1/E2 ubiquitination, Biotin-Ubiquitin, Anti GST-Tb donor / Streptavidin-d2 acceptor). Format: biochemical. The conditions noted are these: second part of Table 2 (head 'Patent Cmpd No / Updated Activity'); same CBL-B TR-FRET IC50 bins A-F; read-out: Updated Activity.

T1 sequence (Q13191 whole entry): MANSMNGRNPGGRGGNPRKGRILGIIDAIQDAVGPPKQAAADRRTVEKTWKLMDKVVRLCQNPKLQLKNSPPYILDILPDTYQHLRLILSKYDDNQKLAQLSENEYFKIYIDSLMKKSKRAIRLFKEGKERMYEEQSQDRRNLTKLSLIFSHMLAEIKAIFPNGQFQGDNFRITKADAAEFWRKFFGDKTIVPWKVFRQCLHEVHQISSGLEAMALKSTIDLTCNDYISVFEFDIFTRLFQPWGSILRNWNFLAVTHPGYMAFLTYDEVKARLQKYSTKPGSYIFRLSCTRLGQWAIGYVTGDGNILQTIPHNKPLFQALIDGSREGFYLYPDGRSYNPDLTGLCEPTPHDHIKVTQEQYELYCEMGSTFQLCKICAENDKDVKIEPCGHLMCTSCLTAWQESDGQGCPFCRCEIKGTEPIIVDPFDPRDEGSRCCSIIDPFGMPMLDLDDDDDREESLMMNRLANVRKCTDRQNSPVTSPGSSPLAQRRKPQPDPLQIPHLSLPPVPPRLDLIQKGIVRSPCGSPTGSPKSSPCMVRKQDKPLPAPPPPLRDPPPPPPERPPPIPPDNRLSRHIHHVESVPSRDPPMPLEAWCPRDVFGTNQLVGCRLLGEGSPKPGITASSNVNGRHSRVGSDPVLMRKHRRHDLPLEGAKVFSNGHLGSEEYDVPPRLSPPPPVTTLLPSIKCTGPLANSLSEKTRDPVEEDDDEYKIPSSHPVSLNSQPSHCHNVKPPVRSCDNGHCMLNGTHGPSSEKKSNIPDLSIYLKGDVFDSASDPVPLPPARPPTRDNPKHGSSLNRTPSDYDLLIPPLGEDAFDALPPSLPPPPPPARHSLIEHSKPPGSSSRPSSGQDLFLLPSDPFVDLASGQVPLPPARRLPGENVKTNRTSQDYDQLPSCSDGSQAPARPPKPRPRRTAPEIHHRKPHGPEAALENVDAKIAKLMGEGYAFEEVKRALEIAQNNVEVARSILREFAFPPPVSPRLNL

On to `COC(=O)N1CC[C@@H](c2cc(C(F)(F)F)c3cn(-c4cccc([C@H](c5nncn5C)C5CCC5)c4)c(=O)n3c2)C1` (single isomer, unassigned) [Compound 409], for which the IC50 is less than 0.1 µM.

Take `COCC(COC)[C@H](c1cccc(-n2cc3c(C(F)(F)F)cc(CN4CCC[C@H](C)C4)cn3c2=O)c1)c1nncn1C` (single isomer, unassigned) [Compound 410]: the IC50 is greater than 10 µM.

With `COCC(COC)[C@@H](c1cccc(-n2cc3c(C(F)(F)F)cc(CN4CCC[C@H](C)C4)cn3c2=O)c1)c1nncn1C` (single isomer, unassigned) [Compound 411], the IC50 is greater than 10 µM.

`C[C@H]1CCCN(Cc2cc(C(F)(F)F)c3cn(-c4cccc([C@]5(c6nncn6C)C[C@@](C)(O)C5)c4)c(=O)n3c2)C1` (single isomer, unassigned) [Compound 417]: the IC50 is less than 0.1 µM.

Consider `C[C@H]1CCCN(Cc2cc(C(F)(F)F)c3cn(-c4cccc([C@]5(c6nncn6C)C[C@](C)(O)C5)c4)c(=O)n3c2)C1` (single isomer, unassigned) [Compound 418], for which the IC50 is 3 to 10 µM.

Consider `Cc1cn(CC#N)nc1[C@@H](c1cccc(-n2cc3c(C(F)(F)F)cc(CN4CCC[C@H](C)C4)cn3c2=O)c1)C1CCC1` (single isomer, unassigned) [Compound 419], for which the IC50 is greater than 10 µM.

Take `Cc1cn(CC#N)nc1[C@H](c1cccc(-n2cc3c(C(F)(F)F)cc(CN4CCC[C@H](C)C4)cn3c2=O)c1)C1CCC1` (single isomer, unassigned) [Compound 420]: the IC50 was greater than 10 µM.

For the compound `CC(=O)N1CC[C@H](c2cc(C(F)(F)F)c3cn(-c4cccc([C@H](c5nncn5C)C5CCC5)c4)c(=O)n3c2)C1` (single isomer, unassigned) [Compound 421], the IC50 was less than 0.1 µM.

For `CC(=O)N1CC[C@@H](c2cc(C(F)(F)F)c3cn(-c4cccc([C@H](c5nncn5C)C5CCC5)c4)c(=O)n3c2)C1` (single isomer, unassigned) [Compound 422], the IC50 is less than 0.1 µM.

As for `CCn1cnnc1[C@@H](c1cccc(-n2cc3c(C(F)(F)F)cc(CN4CCC[C@H](C)C4)cn3c2=O)c1)C1CCC1` (single isomer, unassigned) [Compound 423], the IC50 is greater than 10 µM.

Take `C[C@H]1CCCN(Cc2cc(C(F)(F)F)c3cn(-c4cccc([C@H](c5nncn5C5CC5)C5CCC5)c4)c(=O)n3c2)C1` (single isomer, unassigned) [Compound 424]: the IC50 was greater than 10 µM.

Consider `CC(C)n1cnnc1[C@@H](c1cccc(-n2cc3c(C(F)(F)F)cc(CN4CCC[C@H](C)C4)cn3c2=O)c1)C1CCC1` (single isomer, unassigned) [Compound 425], for which the IC50 is greater than 10 µM.

With `CCn1cnnc1[C@H](c1cccc(-n2cc3c(C(F)(F)F)cc(CN4CCC[C@H](C)C4)cn3c2=O)c1)C1CCC1` (single isomer, unassigned) [Compound 426], the IC50 was greater than 10 µM.

As for `C[C@H]1CCCN(Cc2cc(C(F)(F)F)c3cn(-c4cccc([C@@H](c5nncn5C5CC5)C5CCC5)c4)c(=O)n3c2)C1` (single isomer, unassigned) [Compound 427], the IC50 was greater than 10 µM.

Turning to `CC(C)n1cnnc1[C@H](c1cccc(-n2cc3c(C(F)(F)F)cc(CN4CCC[C@H](C)C4)cn3c2=O)c1)C1CCC1` (single isomer, unassigned) [Compound 428], the IC50 was greater than 10 µM.

With `C[C@H]1CCCN(Cc2cc(C(F)(F)F)c3cn(-c4cccc([C@H](c5nncn5C)[C@H]5C[C@H](O)C5)c4)c(=O)n3c2)C1` (single isomer, unassigned) [Compound 435], the IC50 is greater than 10 µM.

In the case of `C[C@H]1CCCN(Cc2cc(C(F)(F)F)c3cn(-c4cccc([C@@H](c5nncn5C)[C@H]5C[C@@H](O)C5)c4)c(=O)n3c2)C1` (single isomer, unassigned) [Compound 436], the IC50 was greater than 10 µM.

For the compound `C[C@H]1CCCN(Cc2cc(C(F)(F)F)c3cn(-c4cccc([C@H](c5nncn5C)[C@H]5C[C@@H](O)C5)c4)c(=O)n3c2)C1` (single isomer, unassigned) [Compound 437], the IC50 was less than 0.1 µM.
